Laboratory results from USRE36832E, “N-heteroaryl-N'-phenylurea derivatives, their production and use” (Nihon Nohyaku Co., LTD, priority 1993, dated 2000).

Experiments:
[1] = system: cholesterol esterification in macrophages; experiment: Inhibitory effect on cholesterol esterification in macrophages (J774 A.1 cells, AcLDL-loaded, [14C]oleate incorporation); format: cell-based; details: Mus musculus, Macrophage, read-out: Inhibition rate (%)
Experimental: Inhibitory effect on cholesterol esterification in macrophages
The test was carried out by a modification of the method of Goldstein et al. [Pro. Nat. Acad. Sci. USA 71, 4288 (1974)]. J774 A.1 cells, the mouse macropharge-like cell line, were suspended in Dulbecco's modified Eagle's medium (DMEM) containing 10% fetal calf serum (FCS), in a proportion of 3×10^5 cells per 2 ml and were seeded into in 6-well plates. The cells were cultured under a humidified atmosphere of 95% air/5% CO2 at 37° C. for 24 hours. The medium was replaced by 1 ml of DMEM containing 10% of FCS and 50 μg/ml of acetylated human low density lipoprotein (AcLDL), followed by culturing for 16 hours. Five microliters each compound was dissolved in dimethyl sulfoxide and solution was added to the medium, followed by culturing for another 2 hours. Then, [14C]oleate (2×10^6 dpm/well) bovine serum albumin complex was added in the medium. After 2 hours of culture cells were collected and the cholesterol-esterifying activity was determined by measuring radioactivity incorporated into cholesterol esters in the cells. The recovery of the cholesterol esters was determined by the addition of [3H]cholesteryl oleate, and the esterifying activity was corrected using the recovery. As to the inhibitory activity on cholesterol esterification of the compound to be tested, the inhibition rate was calculated by the following equation. [formula] wherein A: the cholesterol-esterifying activity of AcLDL-loaded cells to which the compound to be tested was-added.
B: the cholesterol-esterifying activity of AcLDL-loaded cells to which dimethyl sulfoxide was added.

serum cholesterol = experiment: Serum cholesterol lowering activity in hamsters fed on a high-cholesterol diet; format: in vivo, Male Syrian hamsters; details: 30 mg per kg of body weight per day for 4 days, 24 hours after the last administration
Experimental: Serum cholesterol lowering activity in hamsters fed on a high-cholesterol diet
Male Syrian hamsters of 10-week-old were divided into three groups. The first group (normal group) was fed an ordinary diet for 4 days. The second group (control group) was fed a high cholesterol diet (containing 0.5% cholesterol and 8.0% coconut oil for 4 days. The third group (treated group) was fed a high cholesterol diet and was treated with a compound for 4 days. Simultaneously with the beginning of the above feeding, the compound suspended in a 0.5% carboxymethyl cellulose solution was administered to the treated group, in a dose of 30 mg (in terms of the compound) per kg of body weight per day for 4 days. A 0.5% carboxymethyl cellulose solution was also administered to the normal group and the control group in the same manner as above. After 24 hours of the last administration, blood was collected and the cholesterol concentration in serum was measured by an enzymatic method. The reduction rate of the total serum cholesterol concentration was calculated from values obtained for the three groups by the following equation. [formula] wherein A: the serum cholesterol concentration of the control group.
B: the serum cholesterol concentration of the compound treated group.
C: the serum cholesterol concentration of the normal group.

[2] = biological target: T1, acyl-CoA:cholesterol O-acyltransferase (ACAT) (Oryctolagus cuniculus, UniProt G1SFD9); experiment: Inhibitory activity on acyl-CoA:cholesterol O-acyltransferase (ACAT), intestinal mucosa microsomal fraction, [1-14C]oleyl-CoA incorporation into cholesterol esters; format: biochemical, white rabbit; details: read-out: Inhibition rate %
T1 construct: The intestinal mucosa of a white rabbit was homogenized and microsomal fraction was obtained by stepwise centrifugation; from tissue; host or cells: intestinal mucosa of white rabbit, microsomal fraction
T1 sequence (G1SFD9 1-524): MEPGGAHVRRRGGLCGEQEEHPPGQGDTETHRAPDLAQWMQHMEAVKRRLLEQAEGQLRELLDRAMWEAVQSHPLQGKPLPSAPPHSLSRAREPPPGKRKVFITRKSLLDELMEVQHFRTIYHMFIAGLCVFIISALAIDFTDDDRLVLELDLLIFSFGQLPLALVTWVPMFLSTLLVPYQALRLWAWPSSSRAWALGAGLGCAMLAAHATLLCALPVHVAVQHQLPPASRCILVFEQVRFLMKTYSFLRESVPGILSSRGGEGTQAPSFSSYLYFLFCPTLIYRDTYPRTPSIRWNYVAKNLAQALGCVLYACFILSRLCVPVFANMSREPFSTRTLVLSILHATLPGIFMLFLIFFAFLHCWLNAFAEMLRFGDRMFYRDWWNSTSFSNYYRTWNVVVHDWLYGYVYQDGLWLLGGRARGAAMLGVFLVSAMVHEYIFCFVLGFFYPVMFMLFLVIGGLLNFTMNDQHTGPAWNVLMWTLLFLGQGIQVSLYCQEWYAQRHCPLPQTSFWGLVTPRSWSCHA
Experimental: Inhibitory activity on acyl-CoA:cholesterol Oacyltransferase (ACAT)
The enzyme used in the test was prepared according to the method of Heider et al. [J. Lipid, Res. 24, 1127 (1983)]. The intestinal mucosa of a white rabbit was homogenized and microsomal fraction was obtained by stepwise centrifugation. The microsomal fraction was suspended in 0,154M phosphate buffer (pH 0 7.4) and stored at -80° C. until use.
ACAT activity was determined by a modification of the method of Helgerud et al. [J. Lipid Res. 22, 271 (1981)] by measuring radioactivity incorporated into cholesterol esters from [1-14C]oleyl-CoA, as an indication. As to the ACAT-inhibiting activity of each compound to be tested, the inhibition rate was calculated by the following equation.

Row | inhibition at 0.01 µM [2] | inhibition at 1 µM ([2]; 1 μM) | SMILES | inhibition at 0.1 µM [1] | inhibition at 1 µM [1] | Reduction rate (%) of the total serum cholesterol concentration (serum cholesterol)
1 | 69.9% |  | CCc1cccc(CC)c1NC(=O)Nc1sc2cc(C)c(C)cc2c1-c1ccccc1Cl [Compound 80, N-[3-(2-Chlorophenyl)-5,6-dimethyl-1-benzothiophen-2-yl]-N'-(2,6-diethylphenyl)urea] | 85.3% | 96.9% | 85.9%
2 | 82.9% | 99.4% | CCc1cccc(CC)c1NC(=O)Nc1oc2ccc(Cl)cc2c1-c1ccccc1Cl [Compound 12, N-[5-Chloro-3-(2-chlorophenyl)benzofuran-2-yl]-N'-(2,6-diethylphenyl)urea] | 93% | 99.5% | 55.0%
